Literature values, collected in patent EP2934488B1, “A PHARMACEUTICAL COMPOSITION CONTAINING CANDESARTAN CILEXETIL AND AMLODIPINE” (Adamed Pharma S.A., priority 2012, dated 2014).

Experiments:
[1] = not given; remark: listed apart in the source

solubility in water	absolute bioavailability ([1]; in vivo)	candesartan physiologically available ([1]; candesartan included in commercial formulations, estimated)	SMILES
slightly soluble in water	64-90%	–	CCOC(=O)C1=C(COCCN)NC(C)=C(C(=O)OC)C1c1ccccc1Cl (racemic) [Amlodipine benzenesulfonate, 3-ethyl 5-methyl (4RS)-2-[(2-amino-ethoxy)-methyl]-6-methyl-1,4-dihydropyridine-3,5-dicarboxylate]
–	–	15-40%	CCOc1nc2cccc(C(=O)O)c2n1Cc1ccc(-c2ccccc2-c2nnn[nH]2)cc1 [candesartan]
